This is an account of results in ChEMBL document CHEMBL1154957, “Preparation and in vitro screening of symmetrical bispyridinium cholinesterase inhibitors bearing different connecting linkage-initial study for Myasthenia gravis implications” (Bioorg Med Chem Lett, 2010).

Experiment [1] concerns the target T1, Acetylcholinesterase (Homo sapiens, UniProt P22303). The experiment is described as follows: Inhibition of human erythrocyte AChE after 5 mins by Ellman's method. A general note: In Ellman's method for cholinesterases, released thiocholine reacts with DTNB.
The target in the next experiment is Cholinesterase (Homo sapiens, UniProt P06276). Description: Inhibition of human plasma BChE after 5 mins by Ellman's method. It is filed as cell-free.
Experiment [2] concerns the target T1, Acetylcholinesterase. The experiment is described as follows: Inhibition of human erythrocyte AChE at 0.0000001 mM to 1 mM after 5 mins by Ellman's method.
Experiment [3] has as its target T1, Acetylcholinesterase. The experiment is described as follows: Inhibition of human erythrocyte AChE after 5 mins by noncompetitive Lineweaver-Burke plot analysis for enzyme-inhibitor complex.
Experiment [4] addresses T1, Acetylcholinesterase. Description: Inhibition of human erythrocyte AChE after 5 mins by noncompetitive Lineweaver-Burke plot analysis.

Calls of active or inactive are those of the source. No cut-off for these calls is given here.

Chain of Cholinesterase (P06276 whole entry): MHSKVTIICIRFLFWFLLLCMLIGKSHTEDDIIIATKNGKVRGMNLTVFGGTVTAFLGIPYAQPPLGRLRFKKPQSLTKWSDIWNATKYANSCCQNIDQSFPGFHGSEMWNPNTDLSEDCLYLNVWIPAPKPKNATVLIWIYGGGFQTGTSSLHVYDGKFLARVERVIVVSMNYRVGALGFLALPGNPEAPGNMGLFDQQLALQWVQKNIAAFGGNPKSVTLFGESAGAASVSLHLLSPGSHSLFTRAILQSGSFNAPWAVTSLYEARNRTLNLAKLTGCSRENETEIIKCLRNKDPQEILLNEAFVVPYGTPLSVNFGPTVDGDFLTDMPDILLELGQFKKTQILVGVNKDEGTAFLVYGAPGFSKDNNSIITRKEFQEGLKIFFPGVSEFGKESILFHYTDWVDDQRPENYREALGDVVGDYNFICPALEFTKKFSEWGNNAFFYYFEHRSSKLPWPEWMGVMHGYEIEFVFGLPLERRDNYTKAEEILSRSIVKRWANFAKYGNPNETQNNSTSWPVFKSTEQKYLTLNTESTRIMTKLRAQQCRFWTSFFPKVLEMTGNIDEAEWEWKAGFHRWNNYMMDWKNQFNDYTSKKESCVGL
T1 sequence (P22303 whole entry): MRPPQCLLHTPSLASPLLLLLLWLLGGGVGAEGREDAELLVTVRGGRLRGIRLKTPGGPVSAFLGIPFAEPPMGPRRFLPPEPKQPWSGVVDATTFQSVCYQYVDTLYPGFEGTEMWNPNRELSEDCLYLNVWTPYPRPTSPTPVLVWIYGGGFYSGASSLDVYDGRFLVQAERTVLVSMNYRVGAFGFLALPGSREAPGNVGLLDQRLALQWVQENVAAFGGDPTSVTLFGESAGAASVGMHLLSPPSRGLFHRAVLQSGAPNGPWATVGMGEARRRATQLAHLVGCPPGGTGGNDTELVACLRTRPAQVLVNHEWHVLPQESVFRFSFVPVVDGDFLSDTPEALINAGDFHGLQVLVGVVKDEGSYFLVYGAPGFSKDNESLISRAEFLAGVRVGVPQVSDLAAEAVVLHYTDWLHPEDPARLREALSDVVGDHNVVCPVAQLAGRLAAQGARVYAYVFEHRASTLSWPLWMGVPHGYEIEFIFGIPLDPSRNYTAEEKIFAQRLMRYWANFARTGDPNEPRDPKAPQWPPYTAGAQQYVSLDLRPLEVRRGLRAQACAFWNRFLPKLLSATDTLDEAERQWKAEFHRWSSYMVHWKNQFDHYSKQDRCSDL

As usually defined, the IC50 is the concentration that inhibits the measured activity by half. Read a low IC50 as greater potency in that assay. As for `c1cc[n+](CCCCCCCCC[n+]2ccccc2)cc1`, the IC50 at Acetylcholinesterase [1] amounted to 2 µM; at Cholinesterase, 6 µM.

As to `c1cc[n+](CCCCCCCC[n+]2ccccc2)cc1`, the values for the IC50 against Acetylcholinesterase [1] and against Cholinesterase were 31 µM and 29 µM, respectively.

For the molecule `c1cc[n+](CCCCCC[n+]2ccccc2)cc1`, the IC50 on Acetylcholinesterase [1] turned out to be 63 µM; on Cholinesterase, 130 µM.

As to `c1cc[n+](CCCCCCCCCCCC[n+]2ccccc2)cc1`, the inhibition entry on Acetylcholinesterase [2] was “inactive”.

Take `C(=C\C[n+]1ccccc1)/C[n+]1ccccc1`: the IC50 against Acetylcholinesterase [1] came to 2290 µM; against Cholinesterase, 541 µM.

As to `c1cc[n+](Cc2ccccc2C[n+]2ccccc2)cc1`, the IC50 was found to be 636 µM on Acetylcholinesterase [1] and 345 µM against Cholinesterase.

Regarding `c1cc[n+](C[n+]2ccccc2)cc1`, at Acetylcholinesterase [2], the inhibition entry is “inactive”.

Take `c1cc[n+](CCCCC[n+]2ccccc2)cc1`: the results for the IC50 against Acetylcholinesterase [1] and at Cholinesterase were 1270 µM and 120 µM, respectively.

`c1cc[n+](CCOCC[n+]2ccccc2)cc1`: the half-inhibitory concentration (IC50) is 2010 µM on Acetylcholinesterase [1] and 2360 µM against Cholinesterase.

For the molecule `c1cc[n+](CCCC[n+]2ccccc2)cc1`, the concentration for half-maximal inhibition (IC50) against Acetylcholinesterase [1] turned out to be 505 µM; on Cholinesterase, 9800 µM.

Regarding `c1cc[n+](CCC[n+]2ccccc2)cc1`, the inhibition entry at Acetylcholinesterase [2] is “inactive”.

Regarding `c1cc[n+](COC[n+]2ccccc2)cc1`, the IC50 is 1770 µM against Acetylcholinesterase [1] and 583 µM on Cholinesterase.

For `c1cc[n+](Cc2ccc(C[n+]3ccccc3)cc2)cc1`, the values for the IC50 at Acetylcholinesterase [1] and on Cholinesterase were 1540 µM and 529 µM, respectively.

Turning to `c1cc[n+](CCCCCCC[n+]2ccccc2)cc1`, the IC50 is 241 µM against Acetylcholinesterase [1] and 78 µM against Cholinesterase.

As to `c1cc[n+](CC[n+]2ccccc2)cc1`, at Acetylcholinesterase [2], the inhibition entry was “inactive”.

In the case of `CN(C)C(=O)Oc1cccc([N+](C)(C)C)c1` [NEOSTIGMINE BROMIDE], the IC50 at Cholinesterase came out at 0.8 µM.

In general, Ki refers to the equilibrium dissociation constant of an inhibitor or competing ligand from its target. Consider `c1cc[n+](Cc2ccc3ccc(C[n+]4ccccc4)cc3c2)cc1`, for which the IC50 against Acetylcholinesterase [1] was determined as 0.2 µM; against Cholinesterase, 0.8 µM. Moreover, the Ki on Acetylcholinesterase [3] and on Acetylcholinesterase [4] was 0.14 µM throughout.

Regarding `C(=C/C[n+]1ccccc1)/C[n+]1ccccc1`, the values for the half-inhibitory concentration (IC50) against Acetylcholinesterase [1] and against Cholinesterase were 1990 µM and 1270 µM, respectively.

For `c1cc[n+](CCCCCCCCCCC[n+]2ccccc2)cc1`, the values for the 50% inhibitory concentration (IC50) at Acetylcholinesterase [1] and against Cholinesterase were 0.7 µM and 7 µM, respectively. Moreover, the Ki turned out to be 0.02 µM on Acetylcholinesterase [3] and 0.03 µM on Acetylcholinesterase [4].

On to `c1cc[n+](Cc2cccc(C[n+]3ccccc3)c2)cc1`, for which the concentration for half-maximal inhibition (IC50) against Acetylcholinesterase [1] is 2360 µM; on Cholinesterase, 1380 µM.
